Data taken from ChEMBL document CHEMBL4004803, “Syntheses and antibacterial activity of soluble 9-bromo substituted indolizinoquinoline-5,12-dione derivatives” (Eur J Med Chem, 2017).
Values after ≈ are worked out from the molar mass of the structure shown.

Key:
Type in all cases: functional
[1] = tested on: Escherichia coli; experiment: Antibacterial activity against Escherichia coli ATCC 25922 after 20 to 24 hrs by two-fold microdilution method
[2] = tested on: Staphylococcus aureus; experiment: Antibacterial activity against […] Staphylococcus aureus ATCC 25923 after 20 to 24 hrs by two-fold microdilution method
[3] = tested on: Staphylococcus aureus; experiment: Antibacterial activity against methicillin-resistant Staphylococcus aureus ATCC 43300 after 20 to 24 hrs by two-fold microdilution method
[4] = tested on: Staphylococcus haemolyticus; experiment: Antibacterial activity against Staphylococcus haemolyticus CICC 10373 after 20 to 24 hrs by two-fold microdilution method
[5] = tested on: Streptococcus pyogenes; experiment: Antibacterial activity against Streptococcus pyogenes ATCC 19615 after 20 to 24 hrs by two-fold microdilution method
[6] = tested on: Streptococcus pneumoniae; experiment: Antibacterial activity against Streptococcus pneumoniae ATCC 6305 after 20 to 24 hrs by two-fold microdilution method
[7] = tested on: Staphylococcus epidermidis; experiment: Antibacterial activity against Staphylococcus epidermidis ATCC 12228 after 20 to 24 hrs by two-fold microdilution method
[8] = tested on: Enterococcus faecalis; experiment: Antibacterial activity against Enterococcus faecalis ATCC 29212 after 20 to 24 hrs by two-fold microdilution method
[9] = tested on: Staphylococcus aureus; experiment: Antibacterial activity against methicillin-resistant Staphylococcus aureus clinical isolate after 20 to 24 hrs by two-fold microdilution method
[10] = tested on: Staphylococcus aureus; experiment: Antibacterial activity against methicillin-resistant Staphylococcus aureus 1026021 clinical isolate after 20 to 24 hrs by two-fold microdilution method
[11] = tested on: Staphylococcus aureus; experiment: Antibacterial activity against methicillin-resistant Staphylococcus aureus 1103006 clinical isolate after 20 to 24 hrs by two-fold microdilution method
[12] = tested on: Staphylococcus aureus; experiment: Antibacterial activity against methicillin-resistant Staphylococcus aureus 1106003 clinical isolate after 20 to 24 hrs by two-fold microdilution method
[13] = tested on: Staphylococcus aureus; experiment: Antibacterial activity against methicillin-resistant Staphylococcus aureus 111423 clinical isolate after 20 to 24 hrs by two-fold microdilution method
[14] = tested on: Staphylococcus aureus; experiment: Antibacterial activity against methicillin-resistant Staphylococcus aureus 1216052 clinical isolate after 20 to 24 hrs by two-fold microdilution method

Compound	MIC [1] [µg/mL]	MIC [2] [µg/mL]	MIC [3] [µg/mL]	MIC [4] [µg/mL]	MIC [5] [µg/mL]	MIC [6] [µg/mL]	MIC [7] [µg/mL]	MIC [8] [µg/mL]	MIC50 [9] [µg/mL]	MIC90 [9] [µg/mL]	MIC [10] [µg/mL]	MIC [11] [µg/mL]	MIC [12] [µg/mL]	MIC [13] [µg/mL]	MIC [14] [µg/mL]
O=C1c2cccnc2C(=O)c2c1c(C(=O)OCCCCCCN1CCCC1)c1ccc(Br)cn21	1 (≈ 1.91 µM)	0.5 (≈ 0.953 µM)	0.5 (≈ 0.953 µM)	2 (≈ 3.81 µM)	4 (≈ 7.63 µM)	1 (≈ 1.91 µM)	≤ 0.0078	0.5 (≈ 0.953 µM)	–	–	–	–	–	–	–
CCOC(=O)c1c2c(n3cc(Br)ccc13)C(=O)c1nccnc1C2=O	16 (≈ 40 µM)	0.25 (≈ 0.625 µM)	–	–	–	–	–	–	–	–	–	–	–	–	–
O=C1c2cccnc2C(=O)c2c1c(C(=O)OCCN1CCCC1)c1ccc(Br)cn21	0.5 (≈ 1.07 µM)	0.5 (≈ 1.07 µM)	0.5 (≈ 1.07 µM)	0.5 (≈ 1.07 µM)	8 (≈ 17.1 µM)	4 (≈ 8.54 µM)	0.031 (≈ 0.0662 µM)	0.5 (≈ 1.07 µM)	–	–	–	–	–	–	–
O=C1c2cccnc2C(=O)c2c1c(C(=O)OCCCN1CCCC1)c1ccc(Br)cn21	0.5 (≈ 1.04 µM)	2 (≈ 4.15 µM)	1 (≈ 2.07 µM)	2 (≈ 4.15 µM)	8 (≈ 16.6 µM)	4 (≈ 8.29 µM)	0.25 (≈ 0.518 µM)	1 (≈ 2.07 µM)	–	–	–	–	–	–	–
COP(=O)(CCOC(=O)c1c2c(n3cc(Br)ccc13)C(=O)c1ncccc1C2=O)OC	16 (≈ 31.5 µM)	1 (≈ 1.97 µM)	1 (≈ 1.97 µM)	1 (≈ 1.97 µM)	16 (≈ 31.5 µM)	16 (≈ 31.5 µM)	0.5 (≈ 0.986 µM)	0.5 (≈ 0.986 µM)	–	–	–	–	–	–	–
O=C1c2cccnc2C(=O)c2c1c(C(=O)OCCCCCN1CCCC1)c1ccc(Br)cn21	2 (≈ 3.92 µM)	0.5 (≈ 0.98 µM)	0.5 (≈ 0.98 µM)	0.25 (≈ 0.49 µM)	8 (≈ 15.7 µM)	1 (≈ 1.96 µM)	≤ 0.0078	0.5 (≈ 0.98 µM)	–	–	–	–	–	–	–
CN1CCN(CCCCCOC(=O)c2c3c(n4cc(Br)ccc24)C(=O)c2ncccc2C3=O)CC1	2 (≈ 3.71 µM)	0.25 (≈ 0.463 µM)	0.25 (≈ 0.463 µM)	0.25 (≈ 0.463 µM)	8 (≈ 14.8 µM)	2 (≈ 3.71 µM)	≤ 0.0078	0.25 (≈ 0.463 µM)	–	–	–	–	–	–	–
O=C1c2cccnc2C(=O)c2c1c(C(=O)OCCCO)c1ccc(Br)cn21	8 (≈ 18.6 µM)	0.125 (≈ 0.291 µM)	0.25 (≈ 0.582 µM)	0.25 (≈ 0.582 µM)	8 (≈ 18.6 µM)	8 (≈ 18.6 µM)	0.125 (≈ 0.291 µM)	0.25 (≈ 0.582 µM)	–	–	–	–	–	–	–
O=C1c2cccnc2C(=O)c2c1c(C(=O)OCC(O)CO)c1ccc(Br)cn21 (configuration not stated)	4 (≈ 8.98 µM)	2 (≈ 4.49 µM)	2 (≈ 4.49 µM)	4 (≈ 8.98 µM)	16 (≈ 35.9 µM)	16 (≈ 35.9 µM)	1 (≈ 2.25 µM)	> 16	–	–	–	–	–	–	–
CCOC(=O)c1c2c(n3cccc(Br)c13)C(=O)c1nccnc1C2=O	> 16	1 (≈ 2.5 µM)	–	–	–	–	–	–	–	–	–	–	–	–	–
O=C1c2cccnc2C(=O)c2c1c(C(=O)OCCCN1CCCCC1)c1ccc(Br)cn21	8 (≈ 16.1 µM)	4 (≈ 8.06 µM)	4 (≈ 8.06 µM)	2 (≈ 4.03 µM)	16 (≈ 32.2 µM)	16 (≈ 32.2 µM)	0.5 (≈ 1.01 µM)	4 (≈ 8.06 µM)	–	–	–	–	–	–	–
CN[C@H](CC(C)C)C(=O)N[C@H]1C(=O)N[C@@H](CC(N)=O)C(=O)N[C@H]2C(=O)N[C@H]3C(=O)N[C@H](C(=O)N[C@H](C(=O)O)c4cc(O)cc(O)c4-c4cc3ccc4O)[C@H](O)c3ccc(c(Cl)c3)Oc3cc2cc(c3O[C@@H]2O[C@H](CO)[C@@H](O)[C@H](O)[C@H]2O[C@H]2C[C@](C)(N)[C@H](O)[C@H](C)O2)Oc2ccc(cc2Cl)[C@H]1O [VANCOMYCIN]	–	–	–	–	–	–	–	–	1 (≈ 0.69 µM)	2 (≈ 1.38 µM)	16 (≈ 11 µM)	> 16	> 16	> 16	> 16
CN(C)CCCCOC(=O)c1c2c(n3cc(Br)ccc13)C(=O)c1ncccc1C2=O	1 (≈ 2.13 µM)	4 (≈ 8.5 µM)	2 (≈ 4.25 µM)	4 (≈ 8.5 µM)	16 (≈ 34 µM)	8 (≈ 17 µM)	0.25 (≈ 0.532 µM)	2 (≈ 4.25 µM)	–	–	–	–	–	–	–
CN1CCN(CCCCOC(=O)c2c3c(n4cc(Br)ccc24)C(=O)c2ncccc2C3=O)CC1	8 (≈ 15.2 µM)	0.25 (≈ 0.476 µM)	0.5 (≈ 0.952 µM)	1 (≈ 1.9 µM)	8 (≈ 15.2 µM)	2 (≈ 3.81 µM)	0.031 (≈ 0.059 µM)	0.5 (≈ 0.952 µM)	–	–	–	–	–	–	–
O=C1c2cccnc2C(=O)c2c1c(C(=O)OCCCN1CCOCC1)c1ccc(Br)cn21	16 (≈ 32.1 µM)	0.5 (≈ 1 µM)	0.5 (≈ 1 µM)	4 (≈ 8.03 µM)	16 (≈ 32.1 µM)	16 (≈ 32.1 µM)	0.25 (≈ 0.502 µM)	2 (≈ 4.01 µM)	–	–	–	–	–	–	–
CN(C)CCCCCCOC(=O)c1c2c(n3cc(Br)ccc13)C(=O)c1ncccc1C2=O	2 (≈ 4.01 µM)	0.25 (≈ 0.502 µM)	0.25 (≈ 0.502 µM)	0.5 (≈ 1 µM)	8 (≈ 16.1 µM)	2 (≈ 4.01 µM)	≤ 0.0078	0.5 (≈ 1 µM)	–	–	–	–	–	–	–
O=C1c2cccnc2C(=O)c2c1c(C(=O)OCCCCN1CCCC1)c1ccc(Br)cn21	1 (≈ 2.01 µM)	2 (≈ 4.03 µM)	1 (≈ 2.01 µM)	4 (≈ 8.06 µM)	8 (≈ 16.1 µM)	4 (≈ 8.06 µM)	0.125 (≈ 0.252 µM)	1 (≈ 2.01 µM)	–	–	–	–	–	–	–
O=C1c2cccnc2C(=O)c2c1c(C(=O)OCCO)c1ccc(Br)cn21	4 (≈ 9.63 µM)	0.125 (≈ 0.301 µM)	0.125 (≈ 0.301 µM)	0.5 (≈ 1.2 µM)	8 (≈ 19.3 µM)	8 (≈ 19.3 µM)	0.125 (≈ 0.301 µM)	0.25 (≈ 0.602 µM)	–	–	–	–	–	–	–
CCOC(=O)c1c2c(n3cc(Br)ccc13)C(=O)c1ncccc1C2=O	> 16	0.063 (≈ 0.158 µM)	0.063 (≈ 0.158 µM)	0.125 (≈ 0.313 µM)	4 (≈ 10 µM)	4 (≈ 10 µM)	0.063 (≈ 0.158 µM)	0.016 (≈ 0.0401 µM)	–	–	–	–	–	–	–
CN1CCN(CCCOC(=O)c2c3c(n4cc(Br)ccc24)C(=O)c2ncccc2C3=O)CC1	> 16	8 (≈ 15.6 µM)	4 (≈ 7.82 µM)	16 (≈ 31.3 µM)	16 (≈ 31.3 µM)	16 (≈ 31.3 µM)	4 (≈ 7.82 µM)	> 16	–	–	–	–	–	–	–
O=C1c2cccnc2C(=O)c2c1c(C(=O)OCCCCCN1CCCCC1)c1ccc(Br)cn21	4 (≈ 7.63 µM)	1 (≈ 1.91 µM)	2 (≈ 3.81 µM)	1 (≈ 1.91 µM)	8 (≈ 15.3 µM)	4 (≈ 7.63 µM)	0.125 (≈ 0.238 µM)	0.5 (≈ 0.953 µM)	–	–	–	–	–	–	–
CC1(C)S[C@@H]2[C@H](NC(=O)Cc3ccccc3)C(=O)N2[C@H]1C(=O)O [PENICILLIN G]	> 16	0.063 (≈ 0.188 µM)	> 16	≤ 0.0078	≤ 0.0078	≤ 0.0078	8 (≈ 23.9 µM)	1 (≈ 2.99 µM)	–	–	–	–	–	–	–
CN(C)CCCOC(=O)c1c2c(n3cc(Br)ccc13)C(=O)c1ncccc1C2=O	1 (≈ 2.19 µM)	1 (≈ 2.19 µM)	1 (≈ 2.19 µM)	2 (≈ 4.38 µM)	16 (≈ 35.1 µM)	8 (≈ 17.5 µM)	0.25 (≈ 0.548 µM)	2 (≈ 4.38 µM)	–	–	–	–	–	–	–
O=C1c2cccnc2C(=O)c2c1c(C(=O)OCCCCN1CCCCC1)c1ccc(Br)cn21	4 (≈ 7.84 µM)	1 (≈ 1.96 µM)	1 (≈ 1.96 µM)	2 (≈ 3.92 µM)	16 (≈ 31.3 µM)	4 (≈ 7.84 µM)	0.125 (≈ 0.245 µM)	1 (≈ 1.96 µM)	–	–	–	–	–	–	–
CN1CCN(CCOC(=O)c2c3c(n4cc(Br)ccc24)C(=O)c2ncccc2C3=O)CC1	1 (≈ 2.01 µM)	2 (≈ 4.02 µM)	2 (≈ 4.02 µM)	8 (≈ 16.1 µM)	8 (≈ 16.1 µM)	16 (≈ 32.2 µM)	1 (≈ 2.01 µM)	8 (≈ 16.1 µM)	–	–	–	–	–	–	–
